{"source": "patent US10561708B2", "about": "“Anti-tumor therapy” (The University of Chicago, priority 2013, dated 2020)", "key": {"CWR-22RV1 xenografts": {"test_system": "CWR-22RV1 xenografts", "assay": "Xenograft tumor growth in nude mice", "assay_type": "in vivo", "protocol": "(§1) To determine the potential therapeutic value of targeting the JAK/STAT pathway in prostate cancer, the cells were exposed to the specific JAK2 inhibitor SAR302503. Since it is expected that the greatest value of inhibiting the JAK/STAT pathway is in combination with other toxic insults we evaluated the effect of ionizing radiation used in the treatment of CRPC, and SAR302503 in the genetically related CWR lines (FIG. 2). Cells were plated in p60 dishes with or w/o 0.5 μM of SAR302503 and irradiated with 2 or 5 Gy (or left un-irradiated). Colonies counting and estimation of survival fractions were performed as described elsewhere (Khodarev et. al., 2007, Cancer Research). […] To extend these observations in preclinical animal models we established xenografts of CWR-R1 and CWR-22RV1. For this purpose 10^7 cells were injected in the right flank of each nude mice (5 animals per group) and when tumors reached 200 mm^3 in volume mice were either left un-treated, or treated with SAR302503 (120 mg/kg, once a day, 4 days) or irradiated locally (2×10 Gy) or subjected to combined treatments with SAR302503 and IR. […] At the same tumors treatment by SAR302503 alone led to the 4-days growth delay compared with control tumors. These effects were not observed in CWRR1. Molecular differences between two tumors are currently under investigation. The difference between CWR-R1 and CWR-22RV1 is especially noteworthy since they are isogenic, castrate resistant, and carry both native and splice variant androgen receptor, which is reminiscent of the findings in human prostate cancer specimens."}, "CWR-R1 xenografts": {"test_system": "CWR-R1 xenografts", "assay": "Xenograft tumor growth in nude mice", "assay_type": "in vivo", "details": "CWRR1", "protocol": "as §1"}, "CWR-22RV1 cells": {"test_system": "CWR-22RV1 cells", "assay": "Clonogenic survival with ionizing radiation with or w/o SAR302503", "assay_type": "cell-based", "details": "0.5 μM SAR302503, 2 or 5 Gy", "protocol": "(§2) These cell lines were characterized for relative radioresistance using a clonogenic assay. Briefly, the cells were cultured in their appropriate media at 5% CO2 at 37° C. Optimal cell plating concentrations for a p60 dish were determined for each cell line. The majority of cell lines were plated in triplicate at concentrations of 100 cells/plate for control, 1000 cells/plate for 2 Gy, 2000 cells/plate for 5 Gy, and 3000 cells/plate for 8 Gy. Plates were irradiated 24 hours after plating with either 2, 5, or 8 Gy using a irradiated using a Nordion Gammacell ^60Co irradiator operating at a dose rate of ˜18 Gy/minute. Cells were allowed to grow for 10-21 days (depending on the cell line) until colonies were >50 cells. Plates were then fixed with formalin and stained with crystal violet. Colonies with more than 50 cells were counted. Clonogenic survival for Clonogenic data was obtained for all cell lines tested in screen.\n(§3) To determine the potential therapeutic value of targeting the JAK/STAT pathway in prostate cancer, the cells were exposed to the specific JAK2 inhibitor SAR302503. Since it is expected that the greatest value of inhibiting the JAK/STAT pathway is in combination with other toxic insults we evaluated the effect of ionizing radiation used in the treatment of CRPC, and SAR302503 in the genetically related CWR lines (FIG. 2). […]"}, "CWR-R1 cells": {"test_system": "CWR-R1 cells", "assay": "Clonogenic survival with ionizing radiation with or w/o SAR302503", "assay_type": "cell-based", "details": "0.5 μM SAR302503, 2 or 5 Gy", "protocol": "as §2, §3"}}, "data": [{"smiles": "Cc1cnc(Nc2ccc(OCCN3CCCC3)cc2)nc1Nc1cccc(S(=O)(=O)NC(C)(C)C)c1", "note": "[SAR302503]", "values": [{"measurement": "tumor growth, combined treatment with IR", "setting": "CWR-22RV1 xenografts; 120 mg/kg once a day 4 days + IR 2×10 Gy, by day 9 after beginning of treatment", "value": "significant suppression of tumor growth"}, {"measurement": "growth delay compared with control tumors, inhibitor alone", "setting": "CWR-22RV1 xenografts; 120 mg/kg, once a day, 4 days", "value": 4, "unit": "days"}, {"measurement": "tumor growth, combined treatment with IR", "setting": "CWR-R1 xenografts; 120 mg/kg once a day 4 days + IR 2×10 Gy", "value": "not observed"}, {"measurement": "growth delay compared with control tumors, inhibitor alone", "setting": "CWR-R1 xenografts; 120 mg/kg, once a day, 4 days", "value": "not observed"}, {"measurement": "enhancement of effects of IR (survival fraction, colonies)", "setting": "CWR-22RV1 cells", "value": "significantly enhanced"}, {"measurement": "enhancement of cytotoxic activity of IR (survival fraction, colonies)", "setting": "CWR-R1 cells", "value": "not enhanced"}]}]}
